According to patent US10870832B2, “Use of small molecules to enhance MAFA expression in pancreatic endocrine cells” (Janssen Biotech, Inc., priority 2014, dated 2020):

Tests used:
Experiment in all cases: Kinase profiling of R428
Assay type in all cases: biochemical
[1] = target: CK2α2(h) (Homo sapiens, UniProt P19784); conditions: 100 μM ATP, lower number = more robust inhibition
Procedure: (§1) The efficiency of the AXL inhibitor R428 for targeting different kinases was assessed by Kinase Profiling Services using 100 μM ATP concentration (EMD Millipore). R428 was tested at 1 and 10 μM. Table IV lists the kinases profiled along with the efficiency in targeting the kinases with a lower number indicating a more robust inhibition of a particular kinase.

[2] = target: T1, Flt3(h) (Homo sapiens, UniProt P36888); conditions: for efficiency in targeting Flt3(h): 100 μM ATP, lower number = more robust inhibition
T1 sequence (P36888 27-993): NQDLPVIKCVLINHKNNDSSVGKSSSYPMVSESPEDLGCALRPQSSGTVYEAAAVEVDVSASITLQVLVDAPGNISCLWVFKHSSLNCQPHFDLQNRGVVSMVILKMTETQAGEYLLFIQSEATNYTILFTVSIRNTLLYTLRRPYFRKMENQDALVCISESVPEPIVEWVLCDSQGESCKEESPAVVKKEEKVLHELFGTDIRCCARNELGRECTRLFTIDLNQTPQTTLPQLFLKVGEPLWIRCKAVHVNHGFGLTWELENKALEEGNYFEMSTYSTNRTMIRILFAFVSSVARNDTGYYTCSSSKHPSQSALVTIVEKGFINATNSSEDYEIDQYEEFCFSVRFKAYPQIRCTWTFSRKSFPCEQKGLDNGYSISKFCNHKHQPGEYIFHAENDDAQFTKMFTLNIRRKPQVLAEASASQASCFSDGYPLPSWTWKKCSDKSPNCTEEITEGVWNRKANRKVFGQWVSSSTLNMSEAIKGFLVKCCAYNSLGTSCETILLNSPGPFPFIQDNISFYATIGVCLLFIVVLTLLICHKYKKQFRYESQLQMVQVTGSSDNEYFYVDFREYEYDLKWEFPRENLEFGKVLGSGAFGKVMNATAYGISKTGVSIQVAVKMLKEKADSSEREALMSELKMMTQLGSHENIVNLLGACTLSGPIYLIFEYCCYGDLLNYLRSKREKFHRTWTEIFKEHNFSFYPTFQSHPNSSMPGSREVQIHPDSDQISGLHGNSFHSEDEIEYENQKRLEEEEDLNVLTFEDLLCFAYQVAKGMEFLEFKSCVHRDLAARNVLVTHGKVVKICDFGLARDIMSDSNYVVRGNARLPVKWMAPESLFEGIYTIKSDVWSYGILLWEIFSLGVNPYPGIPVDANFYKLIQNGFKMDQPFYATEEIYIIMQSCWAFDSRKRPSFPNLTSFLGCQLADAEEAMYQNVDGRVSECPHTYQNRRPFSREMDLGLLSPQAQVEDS
Procedure: as §1

[3] = target: TrkC(h) (Homo sapiens, UniProt Q16288); conditions: 100 μM ATP, lower number = more robust inhibition
Procedure: as §1

[4] = target: CHK1(h) (Homo sapiens, UniProt O14757); conditions: 100 μM ATP, lower number = more robust inhibition
Procedure: as §1

[5] = target: ALK4(h) (Homo sapiens, UniProt P36896); conditions: 100 μM ATP, lower number = more robust inhibition
Procedure: as §1

[6] = target: CaMKIδ(h) (Homo sapiens, UniProt Q8IU85); conditions: 100 μM ATP, lower number = more robust inhibition
Chain of CaMKIδ(h) (Q8IU85 whole entry): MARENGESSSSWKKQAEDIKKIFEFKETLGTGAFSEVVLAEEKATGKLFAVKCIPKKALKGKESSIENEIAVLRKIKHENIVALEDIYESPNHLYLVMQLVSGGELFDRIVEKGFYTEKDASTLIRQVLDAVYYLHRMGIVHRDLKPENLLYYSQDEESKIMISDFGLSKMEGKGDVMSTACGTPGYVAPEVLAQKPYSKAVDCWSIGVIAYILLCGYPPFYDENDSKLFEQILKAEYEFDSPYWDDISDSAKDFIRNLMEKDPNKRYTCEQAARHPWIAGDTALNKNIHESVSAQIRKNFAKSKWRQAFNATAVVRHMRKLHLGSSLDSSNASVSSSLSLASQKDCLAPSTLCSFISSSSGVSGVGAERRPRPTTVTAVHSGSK
Procedure: as §1

[7] = target: PKCα(h) (Homo sapiens, UniProt P17252); conditions: 100 μM ATP, lower number = more robust inhibition
Procedure: as §1

[8] = target: SAPK4(h) (Homo sapiens, UniProt O15264); conditions: 100 μM ATP, lower number = more robust inhibition
Chain of SAPK4(h) (O15264 whole entry): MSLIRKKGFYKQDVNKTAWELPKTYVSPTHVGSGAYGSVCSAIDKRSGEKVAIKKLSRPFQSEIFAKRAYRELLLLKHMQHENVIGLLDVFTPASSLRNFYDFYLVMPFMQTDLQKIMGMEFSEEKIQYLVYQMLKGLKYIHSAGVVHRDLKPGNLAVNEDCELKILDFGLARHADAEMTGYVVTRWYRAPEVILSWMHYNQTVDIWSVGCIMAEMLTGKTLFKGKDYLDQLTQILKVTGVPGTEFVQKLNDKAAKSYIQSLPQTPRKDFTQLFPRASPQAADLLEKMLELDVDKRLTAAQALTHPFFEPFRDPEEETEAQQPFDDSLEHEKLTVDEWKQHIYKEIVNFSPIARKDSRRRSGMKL
Procedure: as §1

[9] = target: JAK3(h) (Homo sapiens, UniProt P52333); conditions: 100 μM ATP, lower number = more robust inhibition
Chain of JAK3(h) (P52333 whole entry): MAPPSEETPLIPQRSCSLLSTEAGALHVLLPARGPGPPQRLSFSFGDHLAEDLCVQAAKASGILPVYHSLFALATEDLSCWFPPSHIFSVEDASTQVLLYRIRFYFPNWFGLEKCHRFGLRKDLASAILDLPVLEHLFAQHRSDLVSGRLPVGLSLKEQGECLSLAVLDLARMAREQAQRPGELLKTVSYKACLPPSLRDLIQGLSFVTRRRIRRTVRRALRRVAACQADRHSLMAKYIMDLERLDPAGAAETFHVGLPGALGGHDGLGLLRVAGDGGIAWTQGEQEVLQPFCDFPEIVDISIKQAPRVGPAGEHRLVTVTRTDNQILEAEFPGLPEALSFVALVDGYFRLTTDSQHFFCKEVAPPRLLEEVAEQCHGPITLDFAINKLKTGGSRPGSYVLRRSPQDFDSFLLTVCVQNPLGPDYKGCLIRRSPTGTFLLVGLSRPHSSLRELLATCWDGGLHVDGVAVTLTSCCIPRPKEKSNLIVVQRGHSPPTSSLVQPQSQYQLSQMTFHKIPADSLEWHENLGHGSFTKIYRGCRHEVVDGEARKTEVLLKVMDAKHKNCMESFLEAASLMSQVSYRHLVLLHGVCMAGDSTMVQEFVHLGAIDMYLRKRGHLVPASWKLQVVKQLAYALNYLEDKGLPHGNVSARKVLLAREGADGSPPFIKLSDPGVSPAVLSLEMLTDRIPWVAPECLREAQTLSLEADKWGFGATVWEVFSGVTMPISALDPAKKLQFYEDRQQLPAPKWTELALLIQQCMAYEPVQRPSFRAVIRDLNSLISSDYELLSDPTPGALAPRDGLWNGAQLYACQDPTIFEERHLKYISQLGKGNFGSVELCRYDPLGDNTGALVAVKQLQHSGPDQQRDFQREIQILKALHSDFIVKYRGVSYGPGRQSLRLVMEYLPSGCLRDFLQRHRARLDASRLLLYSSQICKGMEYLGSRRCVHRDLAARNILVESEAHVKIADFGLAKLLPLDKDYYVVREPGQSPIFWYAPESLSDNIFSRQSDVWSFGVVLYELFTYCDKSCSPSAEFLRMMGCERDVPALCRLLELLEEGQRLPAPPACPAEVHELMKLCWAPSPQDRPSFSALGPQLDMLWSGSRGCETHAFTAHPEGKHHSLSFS
Procedure: as §1

[10] = target: PKCβ1(h) (Homo sapiens, UniProt P05771); conditions: 100 μM ATP, lower number = more robust inhibition
Chain of PKCβ1(h) (P05771 whole entry): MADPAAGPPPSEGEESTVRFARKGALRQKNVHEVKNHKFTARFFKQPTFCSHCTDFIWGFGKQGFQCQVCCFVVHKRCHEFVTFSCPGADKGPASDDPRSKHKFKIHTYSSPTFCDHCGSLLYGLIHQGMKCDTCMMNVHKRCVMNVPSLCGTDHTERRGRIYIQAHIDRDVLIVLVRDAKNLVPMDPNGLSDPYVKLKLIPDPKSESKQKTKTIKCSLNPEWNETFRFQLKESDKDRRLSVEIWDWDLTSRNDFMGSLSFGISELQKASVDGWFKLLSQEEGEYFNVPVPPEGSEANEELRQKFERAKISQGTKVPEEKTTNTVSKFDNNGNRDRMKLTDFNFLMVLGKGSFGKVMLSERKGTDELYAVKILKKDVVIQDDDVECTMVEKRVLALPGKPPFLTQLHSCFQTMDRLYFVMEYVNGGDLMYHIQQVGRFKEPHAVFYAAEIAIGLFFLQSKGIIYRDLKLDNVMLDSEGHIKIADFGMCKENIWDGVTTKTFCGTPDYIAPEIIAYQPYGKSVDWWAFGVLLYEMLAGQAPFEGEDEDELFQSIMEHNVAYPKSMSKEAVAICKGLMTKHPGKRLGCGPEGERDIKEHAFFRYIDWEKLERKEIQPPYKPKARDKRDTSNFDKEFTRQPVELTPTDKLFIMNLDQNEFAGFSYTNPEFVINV
Procedure: as §1

[11] = target: T2, Axl(h) (Homo sapiens, UniProt P30530); conditions: for efficiency in targeting Axl(h): 100 μM ATP, lower number = more robust inhibition
T2 sequence (P30530 26-894): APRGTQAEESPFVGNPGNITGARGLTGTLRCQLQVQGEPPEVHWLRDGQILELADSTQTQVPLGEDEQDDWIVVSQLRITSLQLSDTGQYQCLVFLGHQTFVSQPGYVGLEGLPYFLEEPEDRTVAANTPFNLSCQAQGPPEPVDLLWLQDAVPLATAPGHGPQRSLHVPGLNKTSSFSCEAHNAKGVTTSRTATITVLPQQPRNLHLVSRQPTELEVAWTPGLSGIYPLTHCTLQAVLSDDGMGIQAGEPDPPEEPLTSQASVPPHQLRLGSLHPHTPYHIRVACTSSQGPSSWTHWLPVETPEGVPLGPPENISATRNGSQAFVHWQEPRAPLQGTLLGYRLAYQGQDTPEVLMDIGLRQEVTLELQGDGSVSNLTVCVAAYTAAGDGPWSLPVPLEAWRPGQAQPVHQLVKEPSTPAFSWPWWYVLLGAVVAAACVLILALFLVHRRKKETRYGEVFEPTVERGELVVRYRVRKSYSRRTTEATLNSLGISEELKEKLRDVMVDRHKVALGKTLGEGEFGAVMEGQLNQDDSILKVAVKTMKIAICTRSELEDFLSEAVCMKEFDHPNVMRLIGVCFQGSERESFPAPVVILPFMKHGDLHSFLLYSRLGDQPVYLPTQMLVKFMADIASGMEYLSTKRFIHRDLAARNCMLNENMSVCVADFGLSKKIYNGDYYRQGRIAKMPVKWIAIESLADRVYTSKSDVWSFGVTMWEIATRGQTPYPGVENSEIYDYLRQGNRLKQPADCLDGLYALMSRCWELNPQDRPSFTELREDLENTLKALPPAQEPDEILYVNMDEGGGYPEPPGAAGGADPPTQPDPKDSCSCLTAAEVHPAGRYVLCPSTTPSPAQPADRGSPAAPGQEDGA
Procedure: as §1

[12] = target: Met(h) (Homo sapiens, UniProt P08581); conditions: 100 μM ATP, lower number = more robust inhibition
Chain of Met(h) (P08581 25-1390): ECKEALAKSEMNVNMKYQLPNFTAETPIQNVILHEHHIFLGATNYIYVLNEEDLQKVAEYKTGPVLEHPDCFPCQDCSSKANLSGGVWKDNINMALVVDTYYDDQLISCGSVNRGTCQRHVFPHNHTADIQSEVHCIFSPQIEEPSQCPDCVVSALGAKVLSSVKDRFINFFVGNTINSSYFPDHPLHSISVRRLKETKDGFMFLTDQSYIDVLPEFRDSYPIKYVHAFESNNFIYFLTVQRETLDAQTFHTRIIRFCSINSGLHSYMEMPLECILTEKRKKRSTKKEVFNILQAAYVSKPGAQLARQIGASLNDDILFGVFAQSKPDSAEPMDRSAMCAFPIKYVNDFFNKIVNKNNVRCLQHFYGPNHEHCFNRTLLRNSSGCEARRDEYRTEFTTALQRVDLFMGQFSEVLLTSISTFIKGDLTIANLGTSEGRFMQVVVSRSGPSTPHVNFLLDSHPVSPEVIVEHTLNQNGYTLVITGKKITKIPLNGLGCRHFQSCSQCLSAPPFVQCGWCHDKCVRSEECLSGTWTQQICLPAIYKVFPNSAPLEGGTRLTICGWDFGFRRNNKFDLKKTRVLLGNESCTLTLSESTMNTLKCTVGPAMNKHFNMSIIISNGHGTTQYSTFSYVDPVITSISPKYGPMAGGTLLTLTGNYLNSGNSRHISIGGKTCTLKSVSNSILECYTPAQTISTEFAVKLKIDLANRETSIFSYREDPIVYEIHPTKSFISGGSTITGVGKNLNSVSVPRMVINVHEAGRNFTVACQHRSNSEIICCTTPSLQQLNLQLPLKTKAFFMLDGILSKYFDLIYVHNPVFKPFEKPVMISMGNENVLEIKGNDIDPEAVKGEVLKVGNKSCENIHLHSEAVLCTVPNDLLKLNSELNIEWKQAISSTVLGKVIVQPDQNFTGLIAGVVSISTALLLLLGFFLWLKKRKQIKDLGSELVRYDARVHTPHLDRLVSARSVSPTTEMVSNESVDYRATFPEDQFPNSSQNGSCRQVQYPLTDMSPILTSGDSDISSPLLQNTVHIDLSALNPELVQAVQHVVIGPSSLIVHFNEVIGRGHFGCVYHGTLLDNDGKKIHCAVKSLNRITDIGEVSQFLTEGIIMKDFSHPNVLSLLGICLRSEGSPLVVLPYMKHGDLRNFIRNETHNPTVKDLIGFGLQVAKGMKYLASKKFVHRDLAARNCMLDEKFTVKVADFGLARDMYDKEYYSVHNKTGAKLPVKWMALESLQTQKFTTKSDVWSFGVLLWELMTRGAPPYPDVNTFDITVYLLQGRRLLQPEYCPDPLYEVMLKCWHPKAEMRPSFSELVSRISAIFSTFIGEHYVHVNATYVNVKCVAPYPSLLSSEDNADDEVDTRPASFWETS
Procedure: as §1

[13] = target: Aurora-B(h) (Homo sapiens, UniProt Q96GD4); conditions: for efficiency in targeting Aurora-B(h): 100 μM ATP, lower number = more robust inhibition
Chain of Aurora-B(h) (Q96GD4 whole entry): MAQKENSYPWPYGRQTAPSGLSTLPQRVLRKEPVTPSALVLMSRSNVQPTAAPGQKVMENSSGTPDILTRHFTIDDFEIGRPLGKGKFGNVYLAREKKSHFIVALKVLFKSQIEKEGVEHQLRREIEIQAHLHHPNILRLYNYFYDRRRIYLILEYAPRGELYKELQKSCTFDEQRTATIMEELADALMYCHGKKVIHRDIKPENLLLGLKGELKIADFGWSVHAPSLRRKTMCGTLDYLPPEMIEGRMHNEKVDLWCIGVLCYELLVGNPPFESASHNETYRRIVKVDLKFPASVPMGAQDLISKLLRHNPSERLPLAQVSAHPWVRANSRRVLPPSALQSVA
Procedure: as §1

Chain of CK2α2(h) (P19784 whole entry): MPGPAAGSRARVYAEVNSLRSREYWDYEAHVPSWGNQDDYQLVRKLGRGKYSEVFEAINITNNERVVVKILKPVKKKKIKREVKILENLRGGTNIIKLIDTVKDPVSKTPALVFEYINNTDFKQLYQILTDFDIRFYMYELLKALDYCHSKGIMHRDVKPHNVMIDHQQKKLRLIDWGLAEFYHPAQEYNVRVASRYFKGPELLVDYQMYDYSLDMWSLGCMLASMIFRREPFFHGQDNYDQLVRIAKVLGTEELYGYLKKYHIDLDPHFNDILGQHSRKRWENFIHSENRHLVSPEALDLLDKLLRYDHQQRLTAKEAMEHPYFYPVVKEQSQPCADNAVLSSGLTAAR

Nc1nc(Nc2ccc3c(c2)CC[C@@H](N2CCCC2)CC3)nn1-c1cc2c(nn1)-c1ccccc1CCC2 [R428, 1H-1,2,4-Triazole-3,5-diamine, 1-(6,7-dihydro-5H-benzo[6,7]cyclohepta[1,2-c]pyridazin-3-yl) N3-[(7S)-6,7,8,9-tetrahydro-7-(1-pyrrolidinyl)-5H-benzocyclohepten-2-yl]-]
efficiency in targeting CK2α2(h) ([1]; R428 @ 1 μM): 112 | efficiency in targeting CK2α2(h) ([1]; R428 @ 10 μM): 97 | efficiency in targeting Flt3(h) ([2]; R428 @ 1 μM): 9 | efficiency in targeting Flt3(h) ([2]; R428 @ 10 μM): 1 | inhibition of Flt (in words) ([2]; at 1 and 10 μM): potently inhibits | efficiency in targeting TrkC(h) ([3]; R428 @ 1 μM): 47 | efficiency in targeting TrkC(h) ([3]; R428 @ 10 μM): 13 | efficiency in targeting CHK1(h) ([4]; R428 @ 1 μM): 71 | efficiency in targeting CHK1(h) ([4]; R428 @ 10 μM): 23 | efficiency in targeting ALK4(h) ([5]; R428 @ 1 μM): 84 | efficiency in targeting ALK4(h) ([5]; R428 @ 10 μM): 48 | efficiency in targeting CaMKIδ(h) ([6]; R428 @ 1 μM): 76 | efficiency in targeting CaMKIδ(h) ([6]; R428 @ 10 μM): 24 | efficiency in targeting PKCα(h) ([7]; R428 @ 1 μM): 101 | efficiency in targeting PKCα(h) ([7]; R428 @ 10 μM): 96 | efficiency in targeting SAPK4(h) ([8]; R428 @ 1 μM): 94 | efficiency in targeting SAPK4(h) ([8]; R428 @ 10 μM): 91 | efficiency in targeting JAK3(h) ([9]; R428 @ 1 μM): 69 | efficiency in targeting JAK3(h) ([9]; R428 @ 10 μM): 18 | efficiency in targeting PKCβ1(h) ([10]; R428 @ 1 μM): 102 | efficiency in targeting PKCβ1(h) ([10]; R428 @ 10 μM): 95 | efficiency in targeting Axl(h) ([11]; R428 @ 1 μM): −1 | efficiency in targeting Axl(h) ([11]; R428 @ 10 μM): −1 | inhibition of AXL (in words) ([11]; kinase profiling results): inhibits AXL as expected | efficiency in targeting Met(h) ([12]; R428 @ 1 μM): 49 | efficiency in targeting Met(h) ([12]; R428 @ 10 μM): -1 | efficiency in targeting Aurora-B(h) ([13]; R428 @ 1 μM): 1 | efficiency in targeting Aurora-B(h) ([13]; R428 @ 10 μM): 0 | inhibition of AuroraB (in words) ([13]; at 1 and 10 μM): potently inhibits
